According to patent US20060134068A1, “Treatment of cancer by simultaneous inhibiton of BRAF and restoration or mimicry of p16INK4A activity” (Mount Sinai School of Medicine of New York University, priority 2004, published 2006):

Assays:
[1] = test system: mBRAF positive melanoma cells; conditions: mice, Collisson et al. 2003; cited from earlier work
[2] = test system: 624Mel, WM35, A375, and Mel1363 cells; test: Preliminary chemotherapeutic treatment, daily cell counting and colony formation; format: cell-based; conditions: after 6-24 hr treatment, both concentrations
[3] = test system: untreated, advanced, melanoma; conditions: 17 patients, treatment for a median of about 3 months; cited from earlier work
[4] = target: CDK4 (Homo sapiens, UniProt P11802); conditions: Kubo et al. 1999; cited from earlier work
Chain of CDK4 (P11802 whole entry, species assumed): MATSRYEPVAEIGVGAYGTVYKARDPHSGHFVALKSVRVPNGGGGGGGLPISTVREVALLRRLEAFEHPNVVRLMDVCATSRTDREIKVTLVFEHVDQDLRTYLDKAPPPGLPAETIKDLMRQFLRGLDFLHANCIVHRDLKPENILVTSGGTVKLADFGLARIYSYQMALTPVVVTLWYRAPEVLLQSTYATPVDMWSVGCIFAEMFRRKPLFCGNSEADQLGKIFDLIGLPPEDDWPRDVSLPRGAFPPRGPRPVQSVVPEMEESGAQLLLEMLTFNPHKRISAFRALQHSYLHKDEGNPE
Chain of CDK4 (P24385 whole entry partner, species assumed): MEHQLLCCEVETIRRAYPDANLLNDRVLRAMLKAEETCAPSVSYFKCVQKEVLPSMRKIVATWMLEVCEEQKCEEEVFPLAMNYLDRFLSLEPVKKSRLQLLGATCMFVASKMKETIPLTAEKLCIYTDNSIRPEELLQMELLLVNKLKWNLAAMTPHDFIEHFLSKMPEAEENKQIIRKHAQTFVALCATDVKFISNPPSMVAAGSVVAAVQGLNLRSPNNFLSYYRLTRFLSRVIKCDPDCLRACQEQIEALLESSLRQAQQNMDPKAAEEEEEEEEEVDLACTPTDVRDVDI

## O=C(NOCC1CC1)c1ccc(F)c(F)c1Nc1ccc(I)cc1Cl [CI 1040]
[1]
  pulmonary metastases: suppressed

## N.N.[Cl][Pt][Cl] [cisplatin]
[2]
  growth inhibition: Growth inhibition was observed

## CN1CC[C@H](c2c(O)cc(O)c3c(=O)cc(-c4ccccc4Cl)oc23)[C@H](O)C1 [flavopiridol]
[3]
  clinical response: no response
[4]
  inhibition of CDK4 activity, rank among the compounds: most potent inhibitor

## CC(=O)O[C@H]1C(=O)[C@@]2(C)[C@H]([C@H](OC(=O)c3ccccc3)[C@]3(O)C[C@H](OC(=O)[C@H](O)[C@@H](NC(=O)c4ccccc4)c4ccccc4)C(C)=C1C3(C)C)[C@]1(OC(C)=O)CO[C@@H]1C[C@@H]2O [taxol]
[2]
  growth inhibition: Growth inhibition was observed
